Where “and” joins values, the source holds several entries; their conditions need not be identical. Identical values can stand only once.
biological target: T1, human cannabinoid CB1 receptor (Homo sapiens, UniProt P21554); assay: biochemical; type: binding; settings: Cheng–Prusoff from IC50, [3H]CP-55940 0.5 nM, mean ± SEM n = 3; read-out: CB1 Ki
T1 construct: purchased Perkin Elmer Inc., Singapore Pte; Ltd. RBHCB1M400UA; host or cells: HEK293-EBNA cell membranes (overexpressing)
T1 sequence (P21554 whole entry): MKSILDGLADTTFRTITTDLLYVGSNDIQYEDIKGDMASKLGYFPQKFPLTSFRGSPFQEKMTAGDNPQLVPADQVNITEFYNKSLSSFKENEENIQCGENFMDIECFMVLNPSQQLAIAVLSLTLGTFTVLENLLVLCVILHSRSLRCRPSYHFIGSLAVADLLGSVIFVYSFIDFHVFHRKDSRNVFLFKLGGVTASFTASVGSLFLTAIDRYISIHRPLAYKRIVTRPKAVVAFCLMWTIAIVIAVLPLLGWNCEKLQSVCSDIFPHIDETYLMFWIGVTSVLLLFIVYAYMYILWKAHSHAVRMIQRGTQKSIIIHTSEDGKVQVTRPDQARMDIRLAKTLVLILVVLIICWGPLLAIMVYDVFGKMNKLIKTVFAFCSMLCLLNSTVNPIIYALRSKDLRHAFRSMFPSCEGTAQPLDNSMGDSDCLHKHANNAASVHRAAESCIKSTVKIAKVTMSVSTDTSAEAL

Q: How did the Ki turn out when `COc1cccc(-c2nc3cc(Cl)ccc3n2C(=O)c2cccc3ccccc23)c1` [Compound 4b] was run?
A: > 10 µM

Q: Which Ki does the source give for `Cc1cc(-c2nc3cc(Cl)ccc3n2C(=O)c2cccc3ccccc23)no1` [Compound 4c] here?
A: > 10 µM

Q: How did the Ki turn out when `O=C(c1cccc2ccccc12)n1c(-c2ccon2)nc2cc(Cl)ccc21` [Compound 4d] was run?
A: ~1.86 µM and 1.86 µM

Q: For `Cc1ccc(-c2nc3cc(Cl)ccc3n2C(=O)c2cccc3ccccc23)o1` [Compound 4e], which Ki is on record?
A: > 10 µM

Q: With `O=C(c1cccc2ccccc12)n1c(-c2ccco2)nc2cc(Cl)ccc21` [Compound 4f] as the compound, how does the Ki read?
A: > 10 µM

same assay, conditions: [3H]CP-55940 0.5 nM, hCB1 HEK293-EBNA membranes, mean ± SEM n = 3; read-out: CB1 IC50

Q: How did the IC50 turn out when `COc1cccc(-c2nc3cc(Cl)ccc3n2C(=O)c2cccc3ccccc23)c1` [Compound 4b] was run?
A: > 10 µM

Q: For `Cc1cc(-c2nc3cc(Cl)ccc3n2C(=O)c2cccc3ccccc23)no1` [Compound 4c], which IC50 is on record?
A: > 10 µM

Q: Which IC50 does the source give for `O=C(c1cccc2ccccc12)n1c(-c2ccon2)nc2cc(Cl)ccc21` [Compound 4d] here?
A: 7.58 ± 4.21 µM

Q: For `Cc1ccc(-c2nc3cc(Cl)ccc3n2C(=O)c2cccc3ccccc23)o1` [Compound 4e], which IC50 is on record?
A: > 10 µM

Q: Which IC50 does the source give for `O=C(c1cccc2ccccc12)n1c(-c2ccco2)nc2cc(Cl)ccc21` [Compound 4f] here?
A: > 10 µM

same assay, conditions: displacement of [3H]CP-55940 at 10 μM compound; read-out: CB1 Max Tested µM (% Displacement)

Q: With `COc1cccc(-c2nc3cc(Cl)ccc3n2C(=O)c2cccc3ccccc23)c1` [Compound 4b] as the compound, how does the inhibition at 10 µM read?
A: 39%

Q: How did the inhibition at 10 µM turn out when `Cc1cc(-c2nc3cc(Cl)ccc3n2C(=O)c2cccc3ccccc23)no1` [Compound 4c] was run?
A: 38%

Q: For `O=C(c1cccc2ccccc12)n1c(-c2ccon2)nc2cc(Cl)ccc21` [Compound 4d], which inhibition at 10 µM is on record?
A: > 55%

Q: For `Cc1ccc(-c2nc3cc(Cl)ccc3n2C(=O)c2cccc3ccccc23)o1` [Compound 4e], which inhibition at 10 µM is on record?
A: 30%

Q: Which inhibition at 10 µM does the source give for `O=C(c1cccc2ccccc12)n1c(-c2ccco2)nc2cc(Cl)ccc21` [Compound 4f] here?
A: > 50%

biological target: T2, human recombinant cannabinoid CB2 receptor (Homo sapiens, UniProt P34972); assay: CB2 radioligand displacement binding assay ([3H]CP-55940); settings: Cheng–Prusoff from IC50, [3H]CP-55940 0.5 nM, mean ± SEM n = 3
T2 construct: purchased Perkin Elmer Inc., Singapore Pte; Ltd. RBXCB2M400UA; host or cells: HEK293-EBNA cell membranes (overexpressing)
T2 sequence (P34972 whole entry): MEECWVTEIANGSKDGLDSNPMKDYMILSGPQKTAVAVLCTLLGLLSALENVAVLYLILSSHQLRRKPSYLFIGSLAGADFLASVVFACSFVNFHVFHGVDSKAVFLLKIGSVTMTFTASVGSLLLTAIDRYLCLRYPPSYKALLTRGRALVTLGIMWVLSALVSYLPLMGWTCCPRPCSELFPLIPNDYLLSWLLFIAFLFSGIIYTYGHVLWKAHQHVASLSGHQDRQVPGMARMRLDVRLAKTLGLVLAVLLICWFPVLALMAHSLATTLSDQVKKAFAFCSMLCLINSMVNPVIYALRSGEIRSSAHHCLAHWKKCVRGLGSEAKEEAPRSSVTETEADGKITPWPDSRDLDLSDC

Q: `COc1cccc(-c2nc3cc(Cl)ccc3n2C(=O)c2cccc3ccccc23)c1` [Compound 4b] was tested. Which Ki did it give?
A: > 10 µM

Q: How did the Ki turn out when `Cc1cc(-c2nc3cc(Cl)ccc3n2C(=O)c2cccc3ccccc23)no1` [Compound 4c] was run?
A: > 10 µM

Q: How did the Ki turn out when `O=C(c1cccc2ccccc12)n1c(-c2ccon2)nc2cc(Cl)ccc21` [Compound 4d] was run?
A: > 10 µM

Q: With `Cc1ccc(-c2nc3cc(Cl)ccc3n2C(=O)c2cccc3ccccc23)o1` [Compound 4e] as the compound, how does the Ki read?
A: > 10 µM

Q: For `O=C(c1cccc2ccccc12)n1c(-c2ccco2)nc2cc(Cl)ccc21` [Compound 4f], which Ki is on record?
A: > 10 µM

same assay, conditions: [3H]CP-55940 0.5 nM, hCB2 HEK293-EBNA membranes, mean ± SEM n = 3

Q: `COc1cccc(-c2nc3cc(Cl)ccc3n2C(=O)c2cccc3ccccc23)c1` [Compound 4b] was tested. Which IC50 did it give?
A: > 10 µM

Q: How did the IC50 turn out when `Cc1cc(-c2nc3cc(Cl)ccc3n2C(=O)c2cccc3ccccc23)no1` [Compound 4c] was run?
A: > 10 µM

Q: For `O=C(c1cccc2ccccc12)n1c(-c2ccon2)nc2cc(Cl)ccc21` [Compound 4d], which IC50 is on record?
A: > 10 µM

Q: How did the IC50 turn out when `Cc1ccc(-c2nc3cc(Cl)ccc3n2C(=O)c2cccc3ccccc23)o1` [Compound 4e] was run?
A: > 10 µM

Q: With `O=C(c1cccc2ccccc12)n1c(-c2ccco2)nc2cc(Cl)ccc21` [Compound 4f] as the compound, how does the IC50 read?
A: > 10 µM

same assay, conditions: displacement of [3H]CP-55940 at 10 μM compound; read-out: CB2 Max Tested µM (% Displacement)

Q: Which inhibition at 10 µM does the source give for `COc1cccc(-c2nc3cc(Cl)ccc3n2C(=O)c2cccc3ccccc23)c1` [Compound 4b] here?
A: 48%

Q: Which inhibition at 10 µM does the source give for `Cc1cc(-c2nc3cc(Cl)ccc3n2C(=O)c2cccc3ccccc23)no1` [Compound 4c] here?
A: 30%

Q: With `O=C(c1cccc2ccccc12)n1c(-c2ccon2)nc2cc(Cl)ccc21` [Compound 4d] as the compound, how does the inhibition at 10 µM read?
A: 15%

Q: For `Cc1ccc(-c2nc3cc(Cl)ccc3n2C(=O)c2cccc3ccccc23)o1` [Compound 4e], which inhibition at 10 µM is on record?
A: 29%

Q: Which inhibition at 10 µM does the source give for `O=C(c1cccc2ccccc12)n1c(-c2ccco2)nc2cc(Cl)ccc21` [Compound 4f] here?
A: 46.5%

test system: HEK293 cells; assay: cells; settings: 0.1 μM, 72 h, MTT, n = 3
Protocol: (§1) HEK293, U87MG, and HL-60 cell lines were seeded in a flat-bottom 96-well plate at a density of 10,000 cells per well. […] All compounds were incubated at 0.1 μM in 200 μL of culture medium supplemented with 10% FBS, in a flat-bottom 96-well plate at a density of 10,000 cells per well, at 37 °C for 72 h. Next, 20 μL of a 5 mg/mL MTT solution was added, and the cells were incubated at 37 °C for 4 h. Then, they were solubilized with 10% sodium dodecyl sulfate (SDS) in 0.1 mM HCl and incubated overnight at 37 °C. Formazan absorbance of each well was measured using the EPOCH microplate reader (Biotek, Winooski, VT, USA) at a wavelength of 570 nm. […]
(§2) promyelocytic leukemia cells (HL-60) were maintained at 5% CO2 and 37 °C in DMEM, EMEM and RPMI medium, respectively containing 10% Fetal Bovine Serum and 100 U/mL penicillin and 100 […]
(§3) Cell viability: ([MTT - (3-(4,5-dimethylthiazol-2-yl)-2,5-diphenyltetrazolium bromide) - formazan] HEK293, U87MG, and HL-60 cells were first quantified to determine the exact number to be used in […]
(§4) with the Beer-Lambert(1).
(§5) HEK293, U87MG and HL-60 cell lines were seed in a flat-bottom 96-wells plate at a density of 10,000 […]
(§6) concentrations (0.001 μM to 10 μM) in 200 μL of respective culture medium supplemented with 10% fetal bovine serum (FBS), at 37 °C for 72 hours. Subsequently, 20 μL of 5 mg/mL MTT solution was added to each well, and cells were incubated at 37 °C for 4 h. The resulting formazan crystals were then solubilized with 10% sodium dodecyl sulfate (SDS) in 0.1 mM HCl, followed by overnight incubation at 37 °C. Untreated cells were used as the control, 0.1% of dimethyl sulfoxide (DMSO) as the vehicle control, and 0.2 % of Triton X-100 as a positive control for cell death. IC 50 toxicity values […]
(§7) same conditions described in the previous paragraph. […]
(§8) determined IC50. The stimulation with both CB ligands was performed simultaneously.
(§9) All compounds were incubated at 0.1 μM in 200 μL of culture medium supplemented with 10% FBS, in a flat-bottom 96-well plate at a density of 10,000 cells per well, at 37°C for 72 hours. Next, 20 μL of a 5 mg/mL MTT solution was added, and the cells were incubated at 37°C for 4 hours. Then, they were solubilized with 10% sodium dodecyl sulfate (SDS) in 0.1 mM HCl and incubated overnight at 37°C. Formazan absorbance of each well was measured using the EPOCH microplate reader (Biotek, USA) at a wavelength of 570 nm.
(§10) [1]Mosorov, V., The Lambert-Beer law in time domain form and its application.

Q: `O=C(c1cccc2ccccc12)n1c(-c2ccon2)nc2cc(Cl)ccc21` [Compound 4d] was tested. Which “% Toxicity HEK293T” value did it give?
A: 10 ± 9%

same assay, conditions: Homo sapiens, HEK293, 72 h, read-out: % Toxicity HEK293T, 0.1 μM, 72 h, MTT, n = 3

Q: Which cytotoxicity at 0.1 µM does the source give for `O=C(c1cccc2ccccc12)n1c(-c2ccon2)nc2cc(Cl)ccc21` [Compound 4d] here?
A: 10%

test system: U87MG cells; assay: cells; settings: 0.1 μM, 72 h, MTT, n = 3
Protocol: as §1, §2, §3, §4, §5, §6, §7, §8, §9, §10

Q: Which “% Toxicity U87MG” value does the source give for `O=C(c1cccc2ccccc12)n1c(-c2ccon2)nc2cc(Cl)ccc21` [Compound 4d] here?
A: 50 ± 14%

same assay, conditions: Homo sapiens, U-87 MG, 72 h, read-out: % Toxicity U87MG, 0.1 μM, 72 h, MTT, n = 3

Q: `O=C(c1cccc2ccccc12)n1c(-c2ccon2)nc2cc(Cl)ccc21` [Compound 4d] was tested. Which cytotoxicity at 0.1 µM did it give?
A: 50%
